Reference: US11008304B2, “Tetrazole containing apoptosis signal-regulating kinase 1 inhibitors and methods of use thereof” (ENANTA PHARMACEUTICALS, INC., priority 2018, dated 2021)

The compounds below were run against ASK1 kinase (Homo sapiens (Human), UniProt Q99683) (assay: HTRF KinEASE assay of ASK1 kinase activity inhibition). Conditions: 5 nM ASK1, 1 uM STK3 peptide substrate, 100 uM ATP, TR-FRET readout.
Type: biochemical
Method: The ability (IC50) of compounds to inhibit ASK1 kinase activity was determined by HTRF® KinEASE™ Assay System. ASK1 was purchased from Thermofisher (Catalogue #PV4011), ATP was purchased from Sigma (Catalogue #A7699), HTRF® KinEASE™ Assay System was obtained from Cisbio (Bedford, Mass.). ½ Area plate was purchased from Perkin Elmer (Catalogue ##6005560). HTRF® KinEASE™-STK is a generic method for measuring serine/threonine kinase activities using a time-resolved fluorescence resonance energy transfer (TR-FRET) immunoassay. The IC50 value for each compound was determined in the presence of compound (various concentration from 0 to 10 μM) and a fixed amount of ATP and peptide substrates. The test compound, 1 uM STK3 peptide substrate, and 5 nM of ASK1 kinase are incubated with kinase reaction buffer containing 50 mM HEPES pH 7.5, 0.01% BRIJ-35, 10 mM MgCl2, and 1 mM EGTA for 30 minutes. 100 uM ATP is added to start kinase reaction and incubated for 3 hours. The STK3-antibody labeled with Eu^3+-Cryptate and 125 nM streptavidin-XL665 are mixed in a single addition with stop reagents provided by the Cisbio kit used to stop the kinase reaction. Fluorescence is detected using an Envision Multilabeled 2014 reader from PerkinElmer. The Fluorescence is measured at 615 nm (Cryptate) and 665 nm (XL665) and a ratio of 665 nm/615 nm is calculated for each well. The resulting TR-FRET is proportional to the phosphorylation level. Staurosporine was used as the positive control. IC50 was determined by XLfit 5.3. By using above method, the inhibition of ASK1 was tested for the compound of formula (I). IC50 ranges are as follows: A<1 nM; 1 nM<B<10 nM; 10 nM<C<100 nM; 100 nM<D<1 μM; E>1 μM.

Sequence of ASK1 kinase (Q99683 whole entry): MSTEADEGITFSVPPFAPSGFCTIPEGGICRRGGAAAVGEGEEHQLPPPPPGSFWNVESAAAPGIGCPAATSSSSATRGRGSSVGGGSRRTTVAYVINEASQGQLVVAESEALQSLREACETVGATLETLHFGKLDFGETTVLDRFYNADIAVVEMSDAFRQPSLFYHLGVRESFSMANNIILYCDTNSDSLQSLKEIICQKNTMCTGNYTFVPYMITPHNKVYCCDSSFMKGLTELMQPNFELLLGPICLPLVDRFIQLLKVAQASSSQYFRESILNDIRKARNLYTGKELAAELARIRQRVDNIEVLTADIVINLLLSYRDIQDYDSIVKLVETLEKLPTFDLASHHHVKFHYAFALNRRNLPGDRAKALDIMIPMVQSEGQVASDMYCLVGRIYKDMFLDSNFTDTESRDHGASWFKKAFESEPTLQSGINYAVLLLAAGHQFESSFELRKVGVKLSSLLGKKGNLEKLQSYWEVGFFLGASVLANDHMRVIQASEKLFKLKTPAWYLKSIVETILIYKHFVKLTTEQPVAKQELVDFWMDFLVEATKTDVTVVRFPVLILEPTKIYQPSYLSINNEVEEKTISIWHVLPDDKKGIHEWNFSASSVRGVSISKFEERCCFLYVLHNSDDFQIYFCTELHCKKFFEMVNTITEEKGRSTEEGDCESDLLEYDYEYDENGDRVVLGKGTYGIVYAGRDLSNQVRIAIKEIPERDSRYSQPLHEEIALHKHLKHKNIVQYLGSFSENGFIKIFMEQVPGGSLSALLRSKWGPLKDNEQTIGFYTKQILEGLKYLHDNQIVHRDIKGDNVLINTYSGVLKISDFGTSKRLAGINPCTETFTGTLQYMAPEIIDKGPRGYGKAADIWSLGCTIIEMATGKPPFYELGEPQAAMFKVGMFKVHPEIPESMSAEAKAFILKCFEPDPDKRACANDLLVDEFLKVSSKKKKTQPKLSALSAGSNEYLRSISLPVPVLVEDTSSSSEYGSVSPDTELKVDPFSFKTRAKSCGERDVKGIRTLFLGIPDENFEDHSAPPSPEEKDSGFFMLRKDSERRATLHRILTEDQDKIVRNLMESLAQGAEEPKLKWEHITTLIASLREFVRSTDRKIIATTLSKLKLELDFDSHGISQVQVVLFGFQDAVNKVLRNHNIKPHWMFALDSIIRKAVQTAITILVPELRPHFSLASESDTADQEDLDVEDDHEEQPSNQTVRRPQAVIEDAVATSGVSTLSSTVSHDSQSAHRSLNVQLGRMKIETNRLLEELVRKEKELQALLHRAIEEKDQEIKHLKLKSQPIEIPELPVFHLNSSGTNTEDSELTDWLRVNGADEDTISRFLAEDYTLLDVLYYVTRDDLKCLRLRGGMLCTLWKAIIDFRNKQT

Compound | IC50 [nM]
CC(C)n1nnnc1-c1cccc(NC(=O)c2cc(-c3cnn(C4CC4)c3)ccn2)n1 [Example 1] | 10 to 100
Cc1cnc(C(=O)Nc2cccc(-c3nnnn3C(C)C)n2)cc1-c1cnn(C2CC2)c1 [Example 2] | 10 to 100
CC(C)n1nnnc1-c1cccc(NC(=O)c2cc(-c3cnn(C4CC4)c3)c(F)cn2)n1 [Example 3] | 10 to 100
CC(C)n1nnnc1-c1cccc(NC(=O)c2cc(-c3cnn(C4CC4)c3)c(N3CCCC3)cn2)n1 [Example 4] | 10 to 100
CC(C)n1nnnc1-c1cccc(NC(=O)c2cc(-c3cnn(C4CC4)c3)c(N3CCCCC3)cn2)n1 [Example 5] | 10 to 100
CC(C)n1nnnc1-c1cccc(NC(=O)c2cc(-c3cnn(C4CC4)c3)c(N3CCOCC3)cn2)n1 [Example 6] | 1 to 10
CC(C)n1nnnc1-c1cccc(NC(=O)c2cc(-c3cnn(C4CC4)c3)c(N3CCN(C)CC3)cn2)n1 [Example 7] | 1 to 10
CC(C)n1nnnc1-c1nc(NC(=O)c2cc(-c3cnn(C4CC4)c3)c(F)cn2)cs1 [Example 8] | 10 to 100
CC(C)n1nnnc1-c1nc(NC(=O)c2cc(-c3cnn(C4CC4)c3)c(N3CCCC3)cn2)cs1 [Example 9] | 1 to 10
CC(C)n1nnnc1-c1nc(NC(=O)c2cc(-c3cnn(C4CC4)c3)c(N3CCOCC3)cn2)cs1 [Example 10] | 1 to 10
CC(C)n1nnnc1-c1nc(NC(=O)c2cc(-c3cnn(C4CC4)c3)c(N3CCCCC3)cn2)cs1 [Example 11] | 10 to 100
CC(C)n1nnnc1-c1nc(NC(=O)c2cc(-c3cnn(C4CC4)c3)c(N3CCN(C)CC3)cn2)cs1 [Example 12] | 1 to 10
Cc1cnc(C(=O)Nc2cccc(-c3nnnn3[C@H](C)CO)n2)cc1-c1cnn(C2CC2)c1 [Example 13] | 1 to 10
CC(C)n1nnnc1-c1cccc(NC(=O)c2cc(-c3cnn(C4CC4)c3)c(C(F)(F)F)cn2)n1 [Example 14] | 10 to 100
CC(C)n1nnnc1-c1nc(NC(=O)c2cc(-c3cnn(C4CC4)c3)c(C(F)(F)F)cn2)cs1 [Example 15] | 10 to 100
C[C@H](CO)n1nnnc1-c1cccc(NC(=O)c2cc(-c3cnn(C4CC4)c3)c(C(F)(F)F)cn2)n1 [Example 16] | 1 to 10
Cc1cnc(C(=O)Nc2cccc(-n3nnnc3C(C)C)n2)cc1-c1cnn(C2CC2)c1 [Example 17] | 10 to 100
CC(C)n1nnnc1-c1cccc(NC(=O)c2cc(-c3cnn(C4CC4)c3)c(C(F)F)cn2)n1 [Example 18] | 1 to 10
CC(C)n1nnnc1-c1nc(NC(=O)c2cc(-c3cnn(C4CC4)c3)c(C(F)F)cn2)cs1 [Example 19] | 1 to 10
Cc1cnc(C(=O)Nc2cccc(-c3nnnn3C(C)C)n2)cc1-c1cnn(C(C)(C)C)c1 [Example 20] | 1 to 10
Cc1cnc(C(=O)Nc2cccc(-n3nnnc3C(C)C)n2)cc1-c1cnn(C(C)(C)C)c1 [Example 21] | 10 to 100
Cc1cnc(C(=O)Nc2cccc(-c3nnnn3[C@H](C)CO)n2)cc1-c1cnn(C(C)(C)C)c1 [Example 22] | 1 to 10
Cc1cnc(C(=O)Nc2cccc(-c3nnnn3C(C)C)n2)cc1-c1cn(C(C)C)cn1 [Example 23] | 10 to 100

Compound | IC50 [nM]
Cc1cnc(C(=O)Nc2cccc(-n3nnnc3C(C)C)n2)cc1-c1cn(C(C)C)cn1 [Example 24] | > 1000
Cc1cnc(C(=O)Nc2cccc(-c3nnnn3[C@H](C)CO)n2)cc1-c1cn(C(C)C)cn1 [Example 25] | 1 to 10
Cc1cnc(C(=O)Nc2cccc(-c3nnnn3C(C)C)n2)cc1-c1cnn(C(C)C)c1 [Example 26] | 1 to 10
Cc1cnc(C(=O)Nc2cccc(-n3nnnc3C(C)C)n2)cc1-c1cnn(C(C)C)c1 [Example 27] | 1 to 10
Cc1cnc(C(=O)Nc2cccc(-c3nnnn3[C@H](C)CO)n2)cc1-c1cnn(C(C)C)c1 [Example 28] | 1 to 10
C[C@H](CO)n1nnnc1-c1cccc(NC(=O)c2cc(-c3cnn(C4CC4)c3)c(C(F)F)cn2)n1 [Example 29] | 1 to 10
Cc1cnc(C(=O)Nc2cccc(-c3nnnn3C(C)C)n2)cc1-c1cnn(C(F)(F)F)c1 [Example 30] | 10 to 100
Cc1cnc(C(=O)Nc2cccc(-n3nnnc3C(C)C)n2)cc1-c1cnn(C(F)(F)F)c1 [Example 31] | > 1000
Cc1cnc(C(=O)Nc2cccc(-c3nnnn3[C@H](C)CO)n2)cc1-c1cnn(C(F)(F)F)c1 [Example 32] | 1 to 10
Cc1cnc(C(=O)Nc2cccc(-c3nnnn3C(C)C)n2)cc1-c1ccn(C(C)C)n1 [Example 33] | 10 to 100
Cc1cnc(C(=O)Nc2cccc(-n3nnnc3C(C)C)n2)cc1-c1ccn(C(C)C)n1 [Example 34] | > 1000
Cc1cnc(C(=O)Nc2cccc(-c3nnnn3[C@H](C)CO)n2)cc1-c1ccn(C(C)C)n1 [Example 35] | 1 to 10
Cc1cnc(C(=O)Nc2cccc(-c3nnnn3C(C)C)n2)cc1-c1ccccn1 [Example 36] | 10 to 100
Cc1cnc(C(=O)Nc2cccc(-c3nnnn3C(C)C)n2)cc1-c1cccnc1 [Example 37] | 1 to 10
Cc1cnc(C(=O)Nc2cccc(-c3nnnn3C(C)C)n2)cc1-c1ccncc1 [Example 38] | 10 to 100
Cc1ncc(-c2cc(C(=O)Nc3cccc(-c4nnnn4C(C)C)n3)ncc2C)s1 [Example 39] | 1 to 10
Cc1nc(-c2cc(C(=O)Nc3cccc(-c4nnnn4C(C)C)n3)ncc2C)cs1 [Example 40] | 10 to 100
Cc1cnc(C(=O)Nc2cccc(-c3nnnn3[C@H](C)CO)n2)cc1-c1cccnc1 [Example 41] | 1 to 10
Cc1cnc(C(=O)Nc2cccc(-c3nnnn3C(C)C)n2)cc1-c1cnc(C2CC2)s1 [Example 42] | 1 to 10
Cc1cnc(C(=O)Nc2cccc(-c3nnnn3[C@H](C)CO)n2)cc1-c1cnc(C2CC2)s1 [Example 43] | 1 to 10
Cc1cnc(C(=O)Nc2cccc(-c3nnnn3C(C)C)n2)cc1-c1ccc(C2CC2)s1 [Example 44] | 10 to 100
Cc1cnc(C(=O)Nc2cccc(-c3nnnn3[C@H](C)CO)n2)cc1-c1ccc(C2CC2)s1 [Example 45] | 1 to 10
Cc1cc(F)c(C(=O)Nc2cccc(-c3nnnn3C(C)C)n2)cc1-c1cnn(C2CC2)c1 [Example 46] | 1 to 10

Compound | IC50 [nM]
Cc1cc(F)c(C(=O)Nc2cccc(-c3nnnn3[C@H](C)CO)n2)cc1-c1cnn(C2CC2)c1 [Example 47] | 1 to 10
Cc1cc(F)c(C(=O)Nc2cccc(-c3nnnn3C(C)C)n2)cc1-c1cnn(C(C)C)c1 [Example 49] | 1 to 10
Cc1cc(F)c(C(=O)Nc2cccc(-c3nnnn3[C@H](C)CO)n2)cc1-c1cnn(C(C)C)c1 [Example 50] | 1 to 10
Cc1cc(F)c(C(=O)Nc2cccc(-n3nnnc3C(C)C)n2)cc1-c1cnn(C(C)C)c1 [Example 51] | 1 to 10
Cc1cc(F)c(C(=O)Nc2cccc(-c3nnnn3C(C)C)n2)cc1-c1cnn(C(C)(C)C)c1 [Example 52] | 1 to 10
Cc1cc(F)c(C(=O)Nc2cccc(-n3nnnc3C(C)C)n2)cc1-c1cnn(C(C)(C)C)c1 [Example 53] | 1 to 10
Cc1cc(F)c(C(=O)Nc2cccc(-c3nnnn3[C@H](C)CO)n2)cc1-c1cnn(C(C)(C)C)c1 [Example 54] | 1 to 10
Cc1cc(F)c(C(=O)Nc2cccc(-c3nnnn3C(C)C)n2)cc1-c1cnn(C(F)(F)F)c1 [Example 55] | 10 to 100
Cc1cc(F)c(C(=O)Nc2cccc(-n3nnnc3C(C)C)n2)cc1-c1cnn(C(F)(F)F)c1 [Example 56] | 100 to 1000
Cc1cc(F)c(C(=O)Nc2cccc(-c3nnnn3[C@H](C)CO)n2)cc1-c1cnn(C(F)(F)F)c1 [Example 57] | 1 to 10
Cc1cc(F)c(C(=O)Nc2cccc(-c3nnnn3C(C)C)n2)cc1-c1ccn(C(C)C)n1 [Example 58] | 10 to 100
Cc1cc(F)c(C(=O)Nc2cccc(-n3nnnc3C(C)C)n2)cc1-c1ccn(C(C)C)n1 [Example 59] | > 1000
Cc1cc(F)c(C(=O)Nc2cccc(-c3nnnn3[C@H](C)CO)n2)cc1-c1ccn(C(C)C)n1 [Example 60] | 10 to 100
Cc1cc(F)c(C(=O)Nc2cccc(-c3nnnn3C(C)C)n2)cc1-c1cn(C(C)C)cn1 [Example 61] | 10 to 100
Cc1cc(F)c(C(=O)Nc2cccc(-n3nnnc3C(C)C)n2)cc1-c1cn(C(C)C)cn1 [Example 62] | > 1000
Cc1cc(F)c(C(=O)Nc2cccc(-c3nnnn3[C@H](C)CO)n2)cc1-c1cn(C(C)C)cn1 [Example 63] | 10 to 100
Cc1cc(F)c(C(=O)Nc2cccc(-c3nnnn3C(C)C)n2)cc1-c1ccccn1 [Example 64] | 100 to 1000
Cc1cc(F)c(C(=O)Nc2cccc(-c3nnnn3C(C)C)n2)cc1-c1cccnc1 [Example 65] | 1 to 10
Cc1cc(F)c(C(=O)Nc2cccc(-c3nnnn3C(C)C)n2)cc1-c1ccncc1 [Example 66] | 10 to 100
Cc1ncc(-c2cc(C(=O)Nc3cccc(-c4nnnn4C(C)C)n3)c(F)cc2C)s1 [Example 67] | 10 to 100
Cc1nc(-c2cc(C(=O)Nc3cccc(-c4nnnn4C(C)C)n3)c(F)cc2C)cs1 [Example 68] | 100 to 1000
